From PubChem BioAssay AID2060483 (Molecular Pharmacology Branch, DTP, NCI, 2025)
Where “and” joins values, the source holds several entries; their conditions need not be identical. Equal values may be shown once. Blank lines part the entries; values can stand above or below the molecule they belong to.

System: K24384-001-R-PDC complex spheroids, viability
Experiment: Anticancer human tumor K24384-001-R-PDC patient-derived pancreatic adenocarcinoma cell line growth inhibition [GQUAD]
Settings: for viability, T/C: stronger effect = lower value
From the text: DNA G-quadruplex Stabilizer Agents in Combinations in Complex Spheroids
A high-throughput screen of multi-cell type tumor spheroids was designed to identify active combinations of DNA G-quadruplex stabilizer agents and targeted small molecules. Complex spheroids include a stromal component modeled by human endothelial cells (HUVEC) and fibroblasts modeled by human mesenchymal stem cells (MSCs). The concentration ranges selected for each drug and investigational agent were based upon clinically achievable concentrations if the clinical Cmax of the agent was known.
Compounds. The drugs and investigational agents: pidnarulex (CX-5461; NSC782164), APTO-253 (NSC789042), BRACO-19 (NSC847499), peposertib (NSC802822), ceralasertib (NSC780249), elimusertib (NSC800525), camonsertib (NSC841442), AZD-1390 (NSC803789), olaparib (NSC753686), talazoparib (NSC767125), ART-558 (NSC835418), sotorasib (NSC818433), MRTX-1133 (NSC836407), SN-38 (NSC673596), topotecan (NSC609699), etoposide (NSC141540), doxorubicin (NSC123127), gemcitabine (NSC613327), 5-fluorouracil (NSC19893), paclitaxel (NSC125973), vemurafenib (NSC761431), panobinostat (NSC761190), R-306465 (JNJ-16241199; NSC773264), adavosertib (NSC754352), TP-3654 (NSC805149), carboplatin (NSC241240), KSQ-4279 (NSC840948), and staurosporine (NSC755774) were obtained from the National Cancer Institute (NCI) Developmental Therapeutics Program Chemical Repository (34). The FDA-approved anticancer drug set is available from the NCI Developmental Therapeutics Program. […] The stock solutions were prepared in dimethyl sulfoxide (DMSO, Sigma-Aldrich, St. Louis, MO, cat. D2650) at 800-fold the tested concentration and stored at -70 degrees C prior to their use. All drugs and investigational agents were tested over a range starting from a high concentration at or near the clinical Cmax and decreasing in half-log increments. If the clinical Cmax for an agent had not been determined, the highest concentration tested was 10 microM.
2.3 Cell Culture. All cells were maintained in an incubator at 37 degrees C and 5% CO2 with 95% humidity. The PDC lines were cultured according to standard operating procedures established by the NCI PDMR. All PDCs were thawed and cultured in Matrigel-coated flasks prepared with a working solution of 1X Ham's F-12 nutrient mix, without supplementation (Invitrogen, cat. 11765054), 100 U/mL penicillin-streptomycin (Invitrogen, cat. 15140122), and 2.5% Matrigel (Corning Inc., cat. 354248) for the first three passages. The 857933-349-R-J2-PDC line was cultured in 6C/Colon 1B media, which includes advanced DMEM/F-12 (Thermo Fisher Scientific, cat. 12634028), 10 mM HEPES (Thermo Fisher Scientific, cat. 15630080), 1X GlutaMAX supplement (Thermo Fisher Scientific, cat. 35050061), 0.1 mg/mL primocin (InvivoGen, cat. ant-pm-2), 10% defined fetal bovine serum, heat inactivated (HyClone Laboratories Inc., cat. SH30070.03HI), 50% L-WRN conditioned media (ATCC, cat. CRL-3276), 1.25 mM N-Acetyl-L-cysteine (Sigma-Aldrich, cat. A9165), 10 mM nicotinamide (Sigma-Aldrich, cat. N0636), 1X B-27 supplement (Thermo Fisher Scientific, cat. 17504044), 1X N-2 supplement (Thermo Fisher Scientific, cat. 17502048), 10 microM Y-27632 dihydrochloride (Tocris Bioscience, cat. 1254), and 50 ng/mL human EGF recombinant protein (Thermo Fisher Scientific, cat. PHG0311). The 485176-168-R4-J1-PDC line was cultured in Panc media, which includes all 6C/Colon 1B media components plus 100 ng/mL human FGF-10 (Thermo Fisher Scientific, cat. 100-26), 500 nM SB-431542 (Selleckchem, cat. S1067), and gastrin (Tocris, cat. 3006).
[…]
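Also: spheroids exposed to compounds for seven days.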

- IC50 (curve of compound): 285 nM and 108 nM and 531 nM
SMILES: Nc1ccn(C2OC(CO)C(O)C2(F)F)c(=O)n1 (stereo not drawn)
- viability, T/C (compound 0.0316 µM): 84.3% and 75.7% and 81.2%
- viability, T/C (compound 0.1 µM): 63.9% and 51.3% and 63.6%
- viability, T/C (compound 0.316 µM): 50% and 35.2% and 65.7%
- viability, T/C (compound 1 µM): 34.6% and 28.7% and 32.3%
- viability, T/C (compound 3.16 µM): 21.7% and 26.4% and 21.4%
- viability, T/C (compound 10 µM): 15.8% and 21.2% and 19.7%

- IC50 (curve of compound): 290 nM and 271 nM and 466 nM
SMILES: C=CCn1c(=O)c2cnc(Nc3ccc(N4CCN(C)CC4)cc3)nc2n1-c1cccc(C(C)(C)O)n1
- viability, T/C (compound 0.0316 µM): 95.1% and 91% and 82%
- viability, T/C (compound 0.1 µM): 83.3% and 71% and 74.8%
- viability, T/C (compound 0.316 µM): 47.9% and 50.8% and 64%
- viability, T/C (compound 1 µM): 20.5% and 17.9% and 22.7%
- viability, T/C (compound 3.16 µM): 13.4% and 12.8% and 16.7%
- viability, T/C (compound 10 µM): 19.4% and 15.9% and 18.2%

SMILES: Cn1ncnc1[C@H]1c2n[nH]c(=O)c3cc(F)cc(c23)N[C@@H]1c1ccc(F)cc1 + Cc1[nH]c2ccc(F)cc2c1-c1nc2c3cccnc3c3ncccc3c2[nH]1
- IC50 (curve of first compound, second compound 0.0316 µM): > 316 nM
- IC50 (curve of first compound, second compound 0.1 µM): > 316 nM
- IC50 (curve of first compound, second compound 0.316 µM): > 316 nM
- IC50 (curve of first compound, second compound 1 µM): > 316 nM
- IC50 (curve of first compound, second compound 3.16 µM): > 316 nM
- IC50 (curve of first compound, second compound 10 µM): > 316 nM
- viability, T/C (second compound 0.0316 µM, first compound 0.000999 µM): 97.8%
- viability, T/C (second compound 0.0316 µM, first compound 0.00316 µM): 94.4%
- viability, T/C (second compound 0.0316 µM, first compound 0.00999 µM): 99.6%
- viability, T/C (second compound 0.0316 µM, first compound 0.0316 µM): 92%
- viability, T/C (second compound 0.0316 µM, first compound 0.0999 µM): 102%
- viability, T/C (second compound 0.0316 µM, first compound 0.316 µM): 90.4%
- viability, T/C (second compound 0.1 µM, first compound 0.000999 µM): 87.9%
- viability, T/C (second compound 0.1 µM, first compound 0.00316 µM): 98.5%
- viability, T/C (second compound 0.1 µM, first compound 0.00999 µM): 90.3%
- viability, T/C (second compound 0.1 µM, first compound 0.0316 µM): 91%
- viability, T/C (second compound 0.1 µM, first compound 0.0999 µM): 97.1%
- viability, T/C (second compound 0.1 µM, first compound 0.316 µM): 93.2%
- viability, T/C (second compound 0.316 µM, first compound 0.000999 µM): 86.7%
- viability, T/C (second compound 0.316 µM, first compound 0.00316 µM): 103%
- viability, T/C (second compound 0.316 µM, first compound 0.00999 µM): 93%
- viability, T/C (second compound 0.316 µM, first compound 0.0316 µM): 89.5%
- viability, T/C (second compound 0.316 µM, first compound 0.0999 µM): 93%
- viability, T/C (second compound 0.316 µM, first compound 0.316 µM): 77.9%
- viability, T/C (second compound 1 µM, first compound 0.000999 µM): 95.3%
- viability, T/C (second compound 1 µM, first compound 0.00316 µM): 100%
- viability, T/C (second compound 1 µM, first compound 0.00999 µM): 95.3%
- viability, T/C (second compound 1 µM, first compound 0.0316 µM): 81.8%
- viability, T/C (second compound 1 µM, first compound 0.0999 µM): 85.9%
- viability, T/C (second compound 1 µM, first compound 0.316 µM): 80.8%
- viability, T/C (second compound 3.16 µM, first compound 0.000999 µM): 74%
- viability, T/C (second compound 3.16 µM, first compound 0.00316 µM): 92.9%
- viability, T/C (second compound 3.16 µM, first compound 0.00999 µM): 72.3%
- viability, T/C (second compound 3.16 µM, first compound 0.0316 µM): 73.5%
- viability, T/C (second compound 3.16 µM, first compound 0.0999 µM): 72.4%
- viability, T/C (second compound 3.16 µM, first compound 0.316 µM): 67.3%
- viability, T/C (second compound 10 µM, first compound 0.000999 µM): 64.3%
- viability, T/C (second compound 10 µM, first compound 0.00316 µM): 79%
- viability, T/C (second compound 10 µM, first compound 0.00999 µM): 57.2%
- viability, T/C (second compound 10 µM, first compound 0.0316 µM): 76.1%
- viability, T/C (second compound 10 µM, first compound 0.0999 µM): 71.2%
- viability, T/C (second compound 10 µM, first compound 0.316 µM): 60.4%

- IC50 (curve of compound): > 316 nM
SMILES: Cn1ncnc1[C@H]1c2n[nH]c(=O)c3cc(F)cc(c23)N[C@@H]1c1ccc(F)cc1
- viability, T/C (compound 0.000999 µM): 112% and 100% and 116%
- viability, T/C (compound 0.00316 µM): 106% and 95% and 96.9%
- viability, T/C (compound 0.00999 µM): 109% and 76.1% and 136%
- viability, T/C (compound 0.0316 µM): 79.5% and 80.1% and 87.8%
- viability, T/C (compound 0.0999 µM): 88.6% and 88.1% and 99.9%
- viability, T/C (compound 0.316 µM): 85.2% and 80.7% and 93.3%
